pEC50: −log10 of the molar value.
What was measured:
Format in all cases: biochemical
JAK1 = molecular target: T1, JAK1 (Homo sapiens, UniProt P23458); assay: JAK kinase assay (HTRF, phosphorylation of synthetic peptide), JAK1; conditions: catalytic domain, ATP at Km (7 μM); read-out: JAK1 kinase inhibitory activity (EC50)
T1 construct: JAK1 (aa 850-1154) and TYK2 (aa 871-1187) are expressed with an N-terminally fused GST-tag; GST (N); purchased Carna Biosciences, Inc; host or cells: baculovirus expression system
T1 sequence (P23458 850-1154): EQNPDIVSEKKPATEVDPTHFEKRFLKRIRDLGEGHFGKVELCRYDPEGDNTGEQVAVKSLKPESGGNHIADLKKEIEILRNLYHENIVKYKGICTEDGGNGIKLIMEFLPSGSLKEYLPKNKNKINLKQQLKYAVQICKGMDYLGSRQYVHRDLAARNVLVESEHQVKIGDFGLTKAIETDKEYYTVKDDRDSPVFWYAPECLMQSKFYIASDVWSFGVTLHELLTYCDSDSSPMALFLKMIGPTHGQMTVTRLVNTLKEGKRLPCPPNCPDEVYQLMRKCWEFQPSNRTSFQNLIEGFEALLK
Procedure, shortened: (§1)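 Catalytic-domain human JAK1 (GST-tagged, aa 850-1154) or His-tagged JAK2, baculovirus-expressed, phosphorylated 1 µM biotinylated TK peptide at Km ATP (JAK1 7 µM, 10 mM MgCl2, 50 nM SEB; JAK2 4 µM, 5 mM MgCl2) in pH 7.0 Hepes, 20-30 min RT. EDTA stop; overnight streptavidin-XL665/cryptate HTRF read.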

JAK3 = molecular target: T2, JAK3 (Homo sapiens, UniProt P52333); assay: JAK kinase assay (HTRF, phosphorylation of synthetic peptide), JAK3; conditions: catalytic domain, ATP at Km (2 μM); read-out: JAK3 kinase inhibitory activity (EC50)
T2 construct: All four purified enzymes contain only the catalytic domain; His (N); purchased Carna Biosciences, Inc; host or cells: baculovirus expression system
T2 sequence (P52333 822-1111 limits assumed): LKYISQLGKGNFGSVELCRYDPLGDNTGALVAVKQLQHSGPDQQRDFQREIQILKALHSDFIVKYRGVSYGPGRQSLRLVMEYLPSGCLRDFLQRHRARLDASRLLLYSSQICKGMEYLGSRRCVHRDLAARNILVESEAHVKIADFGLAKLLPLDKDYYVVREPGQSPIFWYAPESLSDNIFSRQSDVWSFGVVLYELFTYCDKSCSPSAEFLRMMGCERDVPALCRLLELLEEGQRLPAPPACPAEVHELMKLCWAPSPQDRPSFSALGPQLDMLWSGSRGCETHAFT

JAK2 = molecular target: T3, JAK2 (Homo sapiens, UniProt O60674); assay: JAK kinase assay (HTRF, phosphorylation of synthetic peptide), JAK2; conditions: catalytic domain, ATP at Km (4 μM); read-out: JAK2 kinase inhibitory activity (EC50)
T3 construct: All four purified enzymes contain only the catalytic domain; His (N); purchased Carna Biosciences, Inc; host or cells: baculovirus expression system
T3 sequence (O60674 849-1124 limits assumed): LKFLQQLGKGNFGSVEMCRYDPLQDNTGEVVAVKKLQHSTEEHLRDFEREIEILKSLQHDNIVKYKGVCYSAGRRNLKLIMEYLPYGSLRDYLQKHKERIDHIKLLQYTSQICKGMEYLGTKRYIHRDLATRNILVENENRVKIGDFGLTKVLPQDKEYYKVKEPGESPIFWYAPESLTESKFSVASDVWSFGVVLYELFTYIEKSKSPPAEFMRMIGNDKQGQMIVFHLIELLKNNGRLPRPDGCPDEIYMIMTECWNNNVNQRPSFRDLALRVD
Procedure, shortened: as §1

TYK2 = molecular target: T4, TYK2 (Homo sapiens, UniProt P29597); assay: JAK kinase assay (HTRF, phosphorylation of synthetic peptide), TYK2; conditions: catalytic domain, ATP at Km (13 μM); read-out: TYK2 kinase inhibitory activity (EC50)
T4 construct: JAK1 (aa 850-1154) and TYK2 (aa 871-1187) are expressed with an N-terminally fused GST-tag; GST (N); purchased Carna Biosciences, Inc; host or cells: baculovirus expression system
T4 sequence (P29597 871-1187): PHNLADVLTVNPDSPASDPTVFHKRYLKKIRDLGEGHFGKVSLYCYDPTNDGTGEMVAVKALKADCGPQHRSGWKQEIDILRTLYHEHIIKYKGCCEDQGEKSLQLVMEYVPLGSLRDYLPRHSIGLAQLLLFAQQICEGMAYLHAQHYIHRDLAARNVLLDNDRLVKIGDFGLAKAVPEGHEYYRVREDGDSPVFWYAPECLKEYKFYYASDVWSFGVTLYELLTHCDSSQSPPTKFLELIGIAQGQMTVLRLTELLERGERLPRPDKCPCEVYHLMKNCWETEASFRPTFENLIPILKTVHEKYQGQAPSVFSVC
Procedure, shortened: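 1 µM biotinylated TK peptide at Km ATP in pH 7.0 Hepes, 20-30 min RT. EDTA stop; overnight streptavidin-XL665/cryptate HTRF read.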

| Structure (SMILES) | pEC50 (JAK1) | pEC50 (JAK3) | pEC50 (JAK2) | pEC50 (TYK2) |
| --- | --- | --- | --- | --- |
| CN(CC1CCCCC1)S(=O)(=O)N1CCN(c2ncnc3[nH]ccc23)CC12CC2 [Example 15, 7-(7H-Pyrrolo[2,3-d]pyrimidin-4-yl)-4,7-diaza-spiro[2.5]octane-4-sulfonic acid cyclohexylmethyl-methyl-amide] | > 7.00 | > 7.00 | > 7.00 | 6.30 to 7.00 |
| CN(C(=O)CC(F)(F)F)S(=O)(=O)N1CCN(c2ncnc3[nH]ccc23)CC12CC2 [Example 129, 3,3,3-trifluoro-N-methyl-N-[[5-(7H-pyrrolo[2,3-d]pyrimidin-4-yl)-5,8-diazaspiro[2.5]octan-8-yl]sulfonyl]propanamide] | > 7.00 | 6.30 to 7.00 | > 7.00 | 6.30 to 7.00 |
| CN(CC1CCN(C(=O)C(O)CO)C1)S(=O)(=O)N1CCN(c2ncnc3[nH]ccc23)CC12CC2 (stereo not shown) [Example 127, N-[[1-(2,3-dihydroxypropanoyl)pyrrolidin-3-yl]methyl]-N-methyl-5-(7H-pyrrolo[2,3-d]pyrimidin-4-yl)-5,8-diazaspiro[2.5]octane-8-sulfonamide] | > 7.00 | 6.30 to 7.00 | > 7.00 | < 6.30 |
| CN(CC1CC(=O)C1)S(=O)(=O)N1CCN(c2ncnc3[nH]ccc23)CC12CC2 [Example 88, N-methyl-N-[(3-oxocyclobutyl)methyl]-5-(7H-pyrrolo[2,3-d]pyrimidin-4-yl)-5,8-diazaspiro[2.5]octane-8-sulfonamide] | > 7.00 | 6.30 to 7.00 | > 7.00 | 6.30 to 7.00 |
| Cc1cc(CN(C)S(=O)(=O)N2CCN(c3ncnc4[nH]ccc34)CC23CC3)on1 [Example 67, N-methyl-N-[(3-methylisoxazol-5-yl)methyl]-5-(7H-pyrrolo[2,3-d]pyrimidin-4-yl)-5,8-diazaspiro[2.5]octane-8-sulfonamide] | > 7.00 | > 7.00 | > 7.00 | 6.30 to 7.00 |
| O=S(=O)(N(CCc1ccccc1)CC1CCCCC1)N1CCN(c2ncnc3[nH]ccc23)CC12CC2 [Example 8, 7-(7H-Pyrrolo[2,3-d]pyrimidin-4-yl)-4,7-diaza-spiro[2.5]octane-4-sulfonic acid cyclohexylmethyl-phenethyl-amide] | < 6.30 | < 6.30 | < 6.30 | < 6.30 |
| CN(CC1CCC1)S(=O)(=O)N1CCN(c2ncnc3[nH]ccc23)CC12CC2 [Example 60, N-(cyclobutylmethyl)-N-methyl-5-(7H-pyrrolo[2,3-d]pyrimidin-4-yl)-5,8-diazaspiro[2.5]octane-8-sulfonamide] | > 7.00 | > 7.00 | > 7.00 | > 7.00 |
| CN(CC1CCCCO1)S(=O)(=O)N1CCN(c2ncnc3[nH]ccc23)CC12CC2 (stereo not shown) [Example 64, N-methyl-5-(7H-pyrrolo[2,3-d]pyrimidin-4-yl)-N-(tetrahydropyran-2-ylmethyl)-5,8-diazaspiro[2.5]octane-8-sulfonamide] | > 7.00 | 6.30 to 7.00 | > 7.00 | 6.30 to 7.00 |
| CC(=O)N(CC1CCS(=O)(=O)C1)S(=O)(=O)N1CCN(c2ncnc3[nH]ccc23)CC12CC2 (stereo not shown) [Example 172, N-[(1,1-dioxothiolan-3-yl)methyl]-N-[[5-(7H-pyrrolo[2,3-d]pyrimidin-4-yl)-5,8-diazaspiro[2.5]octan-8-yl]sulfonyl]acetamide] | > 7.00 | > 7.00 | > 7.00 | 6.30 to 7.00 |
| CN(C[C@@H]1CC(F)(F)CN1S(C)(=O)=O)S(=O)(=O)N1CCN(c2ncnc3[nH]ccc23)CC12CC2 [Example 162, N-[[(2S)-4,4-difluoro-1-methylsulfonyl-pyrrolidin-2-yl]methyl]-N-methyl-5-(7H-pyrrolo[2,3-d]pyrimidin-4-yl)-5,8-diazaspiro[2.5]octane-8-sulfonamide] | > 7.00 | > 7.00 | > 7.00 | > 7.00 |
| CN(CCCc1cccc(C#N)c1)S(=O)(=O)N1CCN(c2ncnc3[nH]ccc23)CC12CC2 [Example 30, 7-(7H-Pyrrolo[2,3-d]pyrimidin-4-yl)-4,7-diaza-spiro[2.5]octane-4-sulfonic acid [3-(3-cyano-phenyl)-propyl]-methyl-amide] | > 7.00 | 6.30 to 7.00 | > 7.00 | < 6.30 |
| O=S1(=O)CCC(CN(CCO)S(=O)(=O)N2CCN(c3ncnc4[nH]ccc34)CC23CC3)CC1 [Example 170, N-[(1,1-dioxothian-4-yl)methyl]-N-(2-hydroxyethyl)-5-(7H-pyrrolo[2,3-d]pyrimidin-4-yl)-5,8-diazaspiro[2.5]octane-8-sulfonamide] | > 7.00 | > 7.00 | > 7.00 | > 7.00 |
| CC(C)N(CC#N)S(=O)(=O)N1CCN(c2ncnc3[nH]ccc23)CC12CC2 [Example 96, N-(cyanomethyl)-N-isopropyl-5-(7H-pyrrolo[2,3-d]pyrimidin-4-yl)-5,8-diazaspiro[2.5]octane-8-sulfonamide] | > 7.00 | 6.30 to 7.00 | > 7.00 | < 6.30 |
| N#CCCCN(CCCc1ccccc1)S(=O)(=O)N1CCN(c2ncnc3[nH]ccc23)CC12CC2 [Example 57, 7-(7H-Pyrrolo[2,3-d]pyrimidin-4-yl)-4,7-diaza-spiro[2.5]octane-4-sulfonic acid (3-cyano-propyl)-(3-phenyl-propyl)-amide] | > 7.00 | > 7.00 | > 7.00 | < 6.30 |
| N#CCN(CC1CCS(=O)(=O)CC1)S(=O)(=O)N1CCN(c2ncnc3[nH]ccc23)CC12CC2 [Example 169, N-(cyanomethyl)-N-[(1,1-dioxothian-4-yl)methyl]-5-(7H-pyrrolo[2,3-d]pyrimidin-4-yl)-5,8-diazaspiro[2.5]octane-8-sulfonamide] | > 7.00 | > 7.00 | > 7.00 | > 7.00 |
| O=S(=O)(N(CCO)CCc1ccccc1)N1CCN(c2ncnc3[nH]ccc23)CC12CC2 [Example 25, 7-(7H-Pyrrolo[2,3-d]pyrimidin-4-yl)-4,7-diaza-spiro[2.5]octane-4-sulfonic acid (2-hydroxy-ethyl)-phenethyl-amide] | > 7.00 | > 7.00 | > 7.00 | > 7.00 |
| CN(Cc1ccc(F)cc1)S(=O)(=O)N1CCN(c2ncnc3[nH]ccc23)CC12CC2 [Example 79, N-[(4-fluorophenyl)methyl]-N-methyl-5-(7H-pyrrolo[2,3-d]pyrimidin-4-yl)-5,8-diazaspiro[2.5]octane-8-sulfonamide] | > 7.00 | > 7.00 | > 7.00 | 6.30 to 7.00 |
| O=S(=O)(N(CC1CCC(F)(F)CC1)CC1CCC(F)(F)CC1)N1CCN(c2ncnc3[nH]ccc23)CC12CC2 [Example 150, N,N-bis[(4,4-difluorocyclohexyl)methyl]-5-(7H-pyrrolo[2,3-d]pyrimidin-4-yl)-5,8-diazaspiro[2.5]octane-8-sulfonamide] | 6.30 to 7.00 | 6.30 to 7.00 | > 7.00 | < 6.30 |
| CN(CC1CCCN(S(=O)(=O)CCCC#N)C1)S(=O)(=O)N1CCN(c2ncnc3[nH]ccc23)CC12CC2 (stereo not shown) [Example 161, N-[[1-(3-cyanopropylsulfonyl)-3-piperidyl]methyl]-N-methyl-5-(7H-pyrrolo[2,3-d]pyrimidin-4-yl)-5,8-diazaspiro[2.5]octane-8-sulfonamide] | > 7.00 | 6.30 to 7.00 | > 7.00 | < 6.30 |

From patent US9233964B2, “Sulfamide piperazine derivatives as protein tyrosine kinase inhibitors and pharmaceutical use therof” (LEO PHARMA A/S, priority 2011, dated 2016)
